Source: patent US9629830B2, “EphA4 inhibitors as neuroprotective agents” (The Hong Kong University of Science and Technology, priority 2013, dated 2017)
“Also recorded” adds a separate entry of the source.

What was measured:
[1] = target: T1, extracellular domain of EphB2 (Homo sapiens, UniProt P29323); test: In vitro pull-down of recombinant EphB2-Fc with biotinylated Rhy on streptavidin beads; format: binding; conditions: western blot
T1 construct: purchased R&D Systems
T1 sequence (P29323 19-543 limits assumed): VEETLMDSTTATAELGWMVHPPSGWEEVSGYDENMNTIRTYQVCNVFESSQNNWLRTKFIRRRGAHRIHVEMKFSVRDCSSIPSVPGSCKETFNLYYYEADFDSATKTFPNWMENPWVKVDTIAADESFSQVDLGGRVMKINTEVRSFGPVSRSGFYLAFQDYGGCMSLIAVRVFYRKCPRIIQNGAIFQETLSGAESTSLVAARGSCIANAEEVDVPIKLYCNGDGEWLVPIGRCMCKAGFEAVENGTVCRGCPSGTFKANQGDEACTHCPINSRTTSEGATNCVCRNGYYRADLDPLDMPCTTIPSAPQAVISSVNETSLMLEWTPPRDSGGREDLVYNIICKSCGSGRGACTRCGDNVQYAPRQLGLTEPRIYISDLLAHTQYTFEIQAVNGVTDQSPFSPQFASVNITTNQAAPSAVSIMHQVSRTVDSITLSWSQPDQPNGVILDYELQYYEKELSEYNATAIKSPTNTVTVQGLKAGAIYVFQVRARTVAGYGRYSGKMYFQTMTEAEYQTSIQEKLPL
Description: For the pull-down analysis, Bio-Rhy was bound to streptavidin magnetic beads for 1 h, the beads was then incubated with recombinant EphA4-Fc or EphB2-Fc in the presence of 0.5% BSA for 1 h. After incubation, the beads were washed 4 times with DPBS and the presence of Eph in the complex was determined by western blot analysis.

EphA4 = target: T2, EphA4 (Rattus norvegicus, UniProt D3ZZK3); test: Ephrin-A1-induced EphA4 cluster assay in cultured hippocampal neurons; format: cell-based; conditions: cultured hippocampal neurons 3 DIV, different concentrations
T2 construct: endogenous in cells; host or cells: primary rat cortical neurons (A5), primary rat hippocampal neurons (A7)
Description: For EphA4 clustering, neurons were stained with anti-EphA4 and anti-Tau-1 antibodies. For the growth cone collapse assay, neurons were stained with Alexa Fluor 555-conjugated phalloidin (Molecular Probes) for filamentous actin and anti-Tau-1 antibody for axons. Collapsed growth cones were scored in a double-blinded manner. The experiments were repeated at least 3 times, and >50 neurons were analyzed for each experiment. Data are presented as mean±SEM.
Rat hippocampal neurons were seeded on 48-well plates coated with poly-D-lysine (50 μg/mL) at 6000 cells per well. Neurons were incubated with Neurobasal medium (Invitrogen) supplemented with 2% B27 (Invitrogen). […] Neurons were then immunostained with anti-EphA4 and anti-Tau-1 antibodies. The cellular imaging and quantification of EphA4 clusters was performed using IN Cell Analyzer 6000 high content assay system (GE Healthcare). EphA4 clusters were quantified by calculating the proportion of total area of EphA4 clusters on axons against Tau positive area. Statistical analysis was performed with one-way ANOVA followed by Newman-Keuls Multiple Comparison Test (Prism 5 GraphPad Software).

Tg2576 mutant mice = test: HFS-induced hippocampal LTP in WT and Tg2576 mice after oral treatment; format: in vivo, mouse
Excerpt: APP/PS1 double-transgenic mice were obtained from Jackson Laboratory (B6C3-Tg[APPswe, PSEN1dE9]85Dbo/J)^66. These mice were generated by incorporating a human/murine APP construct bearing the Swedish double mutation and the exon-9-deleted PSEN1 mutation (APPswe+PSEN1/dE9). APP transgenic mice (Tg2576) expressing a double mutant of human AβPP (Lys^670→Asn^670, Met^671→Leu^671) were also used^31. Both sexes were used for experiments, and all mice used in this study were produced by the Animal Care Facility of The Hong Kong University of Science and Technology. The genotype was confirmed by polymerase chain reaction analysis of tail biopsies. Four to five mice of the same sex were housed in a cage with food and water ad libitum with a 12-hour light/dark cycle.
To investigate the effect of blocking EphA4 signaling by KYL peptide in AD mice, 4-5-month-old AD transgenic mice were implanted with Alzet mini-osmotic pumps, model 1004, pumping its contents at 0.11 μL/h for 28 days. Pumps were loaded with either 0.23 μg/μL KYL peptide (17 μg) or vehicle solvent in artificial cerebrospinal fluid (CSF). The mini-osmotic pumps were adjusted intracerebroventricularly in the right hemisphere. […]
For LTP recordings, mouse brains were immediately dissected after sacrifice and soaked in ice-cold 95% O2/5% CO2 (aCSF)^58. […] For treatment with EphA4 inhibitors, the slices were pretreated with peptides or chemicals for 1 h before application of Aβ. fEPSPs were recorded using a MED64 multichannel recording system, and the data were collected from the dendritic layer of area CA1 at a sampling rate of 10 kHz. For each slice, the baseline stimulus intensity was set at the level that elicited ˜50% of the maximum fEPSP response determined according to the input-output curve. […] The magnitude of LTP was quantified as a percentage change in the fEPSP slope (10%-90%) taken during the 60-min interval after LTP induction.

APP/PS1 mice = test: Adult neurogenesis (Ki67 staining) in hippocampus of APP/PS1 mice; format: in vivo, mouse; conditions: Rhy oral 50 mg/kg for over three months, versus control-treated mice
Excerpt: The mouse brains were sectioned and stained with Ki67 antibody, which labelled all cells in the cell cycle, but not those differentiated progenitors and newly born neurons.

T2 sequence (D3ZZK3 20-986): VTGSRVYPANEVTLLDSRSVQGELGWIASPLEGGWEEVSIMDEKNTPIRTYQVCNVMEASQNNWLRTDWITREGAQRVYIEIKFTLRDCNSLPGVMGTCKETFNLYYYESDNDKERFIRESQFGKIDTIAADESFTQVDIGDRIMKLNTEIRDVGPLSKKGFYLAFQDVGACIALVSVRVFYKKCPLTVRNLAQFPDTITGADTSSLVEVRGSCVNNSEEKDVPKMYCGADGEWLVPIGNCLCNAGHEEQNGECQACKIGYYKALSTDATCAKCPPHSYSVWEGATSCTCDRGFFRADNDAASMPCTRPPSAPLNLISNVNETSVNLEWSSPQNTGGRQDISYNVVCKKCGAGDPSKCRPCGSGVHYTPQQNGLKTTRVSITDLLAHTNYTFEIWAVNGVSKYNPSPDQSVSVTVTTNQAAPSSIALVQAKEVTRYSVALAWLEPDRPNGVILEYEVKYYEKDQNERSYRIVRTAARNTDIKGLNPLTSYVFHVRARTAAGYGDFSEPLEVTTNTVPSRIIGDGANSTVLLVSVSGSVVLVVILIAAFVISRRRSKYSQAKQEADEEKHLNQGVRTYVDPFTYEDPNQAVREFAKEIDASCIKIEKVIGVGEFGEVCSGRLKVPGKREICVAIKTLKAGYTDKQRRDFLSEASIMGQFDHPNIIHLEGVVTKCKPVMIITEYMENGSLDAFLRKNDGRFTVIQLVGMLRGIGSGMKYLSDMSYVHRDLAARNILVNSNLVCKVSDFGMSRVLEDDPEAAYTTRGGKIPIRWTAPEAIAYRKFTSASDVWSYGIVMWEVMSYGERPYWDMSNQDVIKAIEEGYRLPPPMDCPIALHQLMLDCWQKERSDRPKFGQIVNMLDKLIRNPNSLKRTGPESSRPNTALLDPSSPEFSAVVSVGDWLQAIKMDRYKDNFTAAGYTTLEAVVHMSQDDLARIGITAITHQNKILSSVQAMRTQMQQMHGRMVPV

## CC[C@H]1CN2CC[C@]3(C(=O)Nc4ccccc43)[C@@H]2C[C@@H]1/C(=C\OC)C(=O)OC [Rhy, methyl (7β,16E,20α)-16-(methoxymethylene)-2-oxocorynoxan-17-oate]
[1]
  binding to the extracellular domain of EphB2 (pull-down, words): not that of EphB2
EphA4
  ephrin-A1-induced EphA4 clustering: reduced the ephrin-A1-induced EphA4 clustering; also recorded: abolished ephrin-A1-induced EphA4 clustering
Tg2576 mutant mice; Tg2576 mice, Rhy oral 20 mg·kg−1·day−1 for 3 weeks, Tg Con 119.0±3.7%
  mean fEPSP slope, last 10 min after LTP induction: 161.9±2.9%
Tg2576 mutant mice; Tg2576 mice, Rhy oral 50 mg·kg−1·day−1 for 3 weeks, Tg Con 119.0±3.7%
  mean fEPSP slope, last 10 min after LTP induction: 159.7±17.9%
Tg2576 mutant mice; WT mice, Rhy oral 20 mg·kg−1·day−1 for 3 weeks, WT Con 170.1±9.7%
  mean fEPSP slope, last 10 min after LTP induction: 167.3±5.2%
APP/PS1 mice
  number of Ki-67+ neural progenitors in dentate gyrus: increased the number of Ki-67+ neural progenitors
